In patent publication US11702402B2, “Small molecules that block proteasome-associated ubiquitin receptor RPN13 function and uses thereof” (DANA-FARBER CANCER INSTITUTE, INC., priority 2018, dated 2023):
“Also recorded” adds a separate entry of the source.

Legend:
[1] = tested on: Ub-tagged GFP that is constitutively targeted for proteasomal degradation; experiment: Ub-GFP (GFPu-1) reporter cell line immunoblot; format: cell-based; conditions: 16 hours
Experimental: Cell lysates were loaded on SDS-PAGE, transferred to PVDF membrane, then immunoblotted with anti-GFP, and anti beta-actin antibodies.
In FIG. 18, a reporter cell line expressing Ub-tagged GFP that is constitutively targeted for proteasomal degradation was treated with RA190 ([…]); and JQRA ([…]) for 16 hours. Cell lysates were loaded on SDS-PAGE, transferred to PVDF membrane, then immunoblotted with anti-GFP, and anti-alpha tubulin antibodies.
FIGS. 19A-19I show the exemplary design and characterization of exemplary Rpn13 degrader WL40. […] WL40 was created by linking the Rpn13 inhibitor RA190 to the IMiD thalidomide as a ligand for the CRBN E3 ligase via a PEG linker. […] FIG. 19C is a schematic cartoon for the novel AlphaScreen assay to measure the binding activity of inhibitor with RPN13 proteins. […] FIG. 19E depicts immunoblot analysis of multiple myeloma 1S (MM.1S) cells, which were treated with WL40 or RA190 at the indicated concentrations and time periods; protein lysates were subjected to the immunoblot analysis using anti-Rpn13 or anti-tubulin Abs. FIG. 19F depicts flow cytometry analysis of MM.1S cells, which were treated with DMSO control, WL40 (400 nM), or RA190 (500 nM) for 16 hours; cells were then washed and stained with Rpn13 Ab conjugated with AlexaFluor-647, followed by the flow cytometry analysis. Isotype Ab conjugated to AlexaFluor-647 was used as control for non-specific binding. Data was quantified using FACS Diva (BD Biosciences, USA) and FlowJo (FlowJo LLC, USA). FIG. 19G depicts immunoblot analysis of MM.1S-CRBN KO cells, which were treated with WL40 (400 nM) or RA190 (500 nM) for 16 hours; protein lysates were subjected to the immunoblot analysis using anti-Rpn13 or anti β-actin Abs. […]
To confirm that CRBN presence is a prerequisite for the function of WL40 in cells, CRBN-knockout (KO) MM.1S cells^27, 38 were utilized, and the effect of WL40 on Rpn13 degradation was examined. […] GFPu-1 cells were treated with WL40, and GFP levels were then analyzed using immunoblotting. […]

CRBN-DDB1 = CRBN-DDB1 (Homo sapiens, UniProt Q96SW2); experiment: CRBN AlphaScreen (displacement of biotinylated-pomalidomide probe); format: binding; conditions: in vitro AlphaScreen; thalidomide and lenalidomide as positive controls
CRBN-DDB1, sequence (Q96SW2 whole entry): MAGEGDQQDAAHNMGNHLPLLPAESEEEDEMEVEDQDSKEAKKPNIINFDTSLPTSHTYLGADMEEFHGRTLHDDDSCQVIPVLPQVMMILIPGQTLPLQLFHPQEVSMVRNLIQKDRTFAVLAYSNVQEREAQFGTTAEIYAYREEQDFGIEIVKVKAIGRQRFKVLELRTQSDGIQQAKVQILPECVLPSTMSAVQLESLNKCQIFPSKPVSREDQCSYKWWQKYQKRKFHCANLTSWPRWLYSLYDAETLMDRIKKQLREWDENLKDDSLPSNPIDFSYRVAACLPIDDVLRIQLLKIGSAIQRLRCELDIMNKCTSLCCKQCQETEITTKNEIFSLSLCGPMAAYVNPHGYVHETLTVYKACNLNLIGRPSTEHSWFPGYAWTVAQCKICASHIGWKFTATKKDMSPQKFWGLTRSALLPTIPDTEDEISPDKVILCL
CRBN-DDB1, sequence (Q16531 whole entry partner): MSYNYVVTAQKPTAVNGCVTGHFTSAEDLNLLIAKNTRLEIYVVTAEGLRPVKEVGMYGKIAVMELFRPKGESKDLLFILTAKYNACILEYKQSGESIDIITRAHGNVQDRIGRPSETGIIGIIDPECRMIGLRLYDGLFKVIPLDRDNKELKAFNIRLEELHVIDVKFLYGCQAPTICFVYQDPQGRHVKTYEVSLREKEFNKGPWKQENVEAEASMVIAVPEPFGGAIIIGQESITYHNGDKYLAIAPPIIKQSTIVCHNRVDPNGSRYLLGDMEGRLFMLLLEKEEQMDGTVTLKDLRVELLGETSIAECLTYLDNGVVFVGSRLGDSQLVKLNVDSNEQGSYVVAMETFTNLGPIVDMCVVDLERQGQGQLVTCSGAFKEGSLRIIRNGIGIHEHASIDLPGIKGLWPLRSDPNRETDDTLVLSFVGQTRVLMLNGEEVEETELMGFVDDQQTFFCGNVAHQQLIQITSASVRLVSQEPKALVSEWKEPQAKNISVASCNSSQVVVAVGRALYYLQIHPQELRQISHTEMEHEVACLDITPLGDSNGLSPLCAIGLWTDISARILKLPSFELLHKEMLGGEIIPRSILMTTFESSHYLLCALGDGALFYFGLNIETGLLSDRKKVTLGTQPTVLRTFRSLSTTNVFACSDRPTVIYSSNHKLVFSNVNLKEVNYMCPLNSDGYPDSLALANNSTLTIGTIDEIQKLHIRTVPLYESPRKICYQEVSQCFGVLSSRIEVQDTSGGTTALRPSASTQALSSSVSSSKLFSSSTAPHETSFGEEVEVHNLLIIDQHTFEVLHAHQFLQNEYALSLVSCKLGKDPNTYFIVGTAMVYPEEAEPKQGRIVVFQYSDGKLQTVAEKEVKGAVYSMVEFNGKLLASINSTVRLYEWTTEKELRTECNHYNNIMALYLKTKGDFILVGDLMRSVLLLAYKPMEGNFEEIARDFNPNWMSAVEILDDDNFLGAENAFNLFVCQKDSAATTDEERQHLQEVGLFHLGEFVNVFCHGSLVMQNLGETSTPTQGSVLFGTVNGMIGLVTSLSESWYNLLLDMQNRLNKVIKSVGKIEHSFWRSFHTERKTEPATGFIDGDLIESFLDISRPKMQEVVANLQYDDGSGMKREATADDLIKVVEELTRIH

MM.1S CRBN KO cells = experiment: MM.1S CRBN KO cell viability; format: cell-based, Human
Description: FIGS. […] Wst-1 assay was used to test cell viability.
The experiment was repeated twice and JQRA concentration was increased (as indicated) at the second time.

SMILES | Ub-GFP levels / proteasome function (immunoblot) ([1]; WL40, WL44 0.5-2.0 μM, RA190 1 μM) | CRBN binding (CRBN-DDB1) | cell viability (MM.1S CRBN KO cells; MM.1S-CRBN KO, 24 hours, Wst-1) | Ub-GFP levels / proteasome function (immunoblot) ([1]; 312 μM, 625 μM, 1250 μM, 2500 μM, 5000 μM) | cytotoxicity (percentage of viable cells) (MM.1S CRBN KO cells; CRBN-KO cells, 72 hours)
O=C1CCC(N2C(=O)c3cccc(NCCOCCOCCOCCC(=O)N[C@@H](Cc4ccccc4)C(=O)N4C/C(=C\c5ccc(Cl)c(Cl)c5)C(=O)/C(=C/c5ccc(Cl)c(Cl)c5)C4)c3C2=O)C(=O)N1 (stereo partly drawn) [WL40] | block proteasome function; also recorded: increases GFP levels | interacts with the E3 ubiquitin receptor CRBN | decrease cell viability |  | 
Cl.N[C@@H](Cc1ccccc1)C(=O)N1C/C(=C/c2ccc(Cl)c(Cl)c2)C(=O)/C(=C\c2ccc(Cl)c(Cl)c2)C1 [RA190, reference compound] |  | did not show any binding to CRBN |  | blocks proteasome function | more robust MM cytotoxicity
